Source: ChEMBL document CHEMBL5241052, “Dual-target kinase drug design: Current strategies and future directions in cancer therapy” (Eur J Med Chem, 2020)
pIC50: −log10 of the molar value. One block for each compound: values may come before it.

Key:
[1] = target: Proto-oncogene tyrosine-protein kinase Src (Homo sapiens, UniProt P12931); test: Inhibition of Src (unknown origin)
MDA-MB-231 = test: Antiproliferative activity against MDA-MB-231 cells (unknown origin); type: functional, cell-based; details: Homo sapiens
4T1 = test: Antiproliferative activity against 4T1 cells (unknown origin); type: functional, cell-based; details: Mus musculus
[2] = target: T1, Epidermal growth factor receptor (Homo sapiens, UniProt P00533); test: Inhibition of human EGFR
[3] = target: Serine/threonine-protein kinase mTOR (Homo sapiens, UniProt P42345); test: Inhibition of mTOR (unknown origin) by ELISA based kinase assay
BCPAP = test: Antiproliferative activity against human BCPAP cells harboring BRAF V600E mutation assessed as cell growth inhibition at 5 uM by cell counting assay; type: functional
SW-1736 = test: Antiproliferative activity against human SW-1736 cells harboring BRAF V600E mutation assessed as cell growth inhibition at 5 uM by cell counting assay; type: functional
[4] = Antiproliferative activity against human HTh104 cells harboring BRAF V600E mutation assessed as cell growth inhibition at 5 uM by cell counting assay; type: functional
Aurora kinase A = Aurora kinase A (Homo sapiens, UniProt O14965); test: Inhibition of AURA (unknown origin)
[5] = Antiproliferative activity against human C643 cells harboring Ras mutation assessed as cell growth inhibition at 5 uM by cell counting assay; type: functional
FTC-133 = test: Antiproliferative activity against human FTC-133 cells harboring PTEN mutation assessed as cell growth inhibition at 5 uM by cell counting assay; type: functional
[6] = Antiproliferative activity against human HTh7 cells harboring Ras mutation assessed as cell growth inhibition at 5 uM by cell counting assay; type: functional
TPC1 = test: Antiproliferative activity against human TPC1 cells harboring RET/PTC mutation assessed as cell growth inhibition at 5 uM by cell counting assay; type: functional
[7] = target: Serine/threonine-protein kinase B-raf (Homo sapiens, UniProt P15056, V600E); test: Inhibition of human BRAF V600E mutant
MCF7 = test: Antiproliferative activity against human MCF7 cells at 10 uM by MTT assay; type: functional, cell-based
A549 = test: Antiproliferative activity against human A549 cells at 10 uM by MTT assay; type: functional, cell-based
A-375 = test: Antiproliferative activity against human A-375 cells at 10 uM by MTT assay; type: functional, cell-based
LoVo = test: Antiproliferative activity against human LoVo cells at 10 uM by MTT assay; type: functional, cell-based
HCT-116 = test: Antiproliferative activity against human HCT-116 cells at 10 uM by MTT assay; type: functional, cell-based
COLO 205 = test: Antiproliferative activity against human COLO 205 cells at 10 uM by MTT assay; type: functional, cell-based
[8] = target: Proto-oncogene tyrosine-protein kinase receptor Ret (Homo sapiens, UniProt P07949); test: Inhibition of RET (unknown origin) by invitro kinase assay
[9] = target: Vascular endothelial growth factor receptor 2 (Homo sapiens, UniProt P35968); test: Inhibition of VEGFR2 (unknown origin) by invitro kinase assay
[10] = target: Proto-oncogene tyrosine-protein kinase receptor Ret (Homo sapiens, UniProt P07949, V804M); test: Inhibition of RET V804M mutant (unknown origin) by invitro kinase assay
DU-145 = test: Antiproliferative activity against human DU-145 cells assessed as growth inhibition and measured after 96 hrs by micro plate reader analysis; type: functional, cell-based; details: DU-145, 96 h
MES-SA = test: Antiproliferative activity against human MES-SA cells assessed as growth inhibition and measured after 96 hrs by micro plate reader analysis; type: functional, cell-based
[11] = target: T1, Epidermal growth factor receptor; test: Inhibition of human EGFR phosphorylation by invitro enzyme assay

T1 sequence (P00533 whole entry): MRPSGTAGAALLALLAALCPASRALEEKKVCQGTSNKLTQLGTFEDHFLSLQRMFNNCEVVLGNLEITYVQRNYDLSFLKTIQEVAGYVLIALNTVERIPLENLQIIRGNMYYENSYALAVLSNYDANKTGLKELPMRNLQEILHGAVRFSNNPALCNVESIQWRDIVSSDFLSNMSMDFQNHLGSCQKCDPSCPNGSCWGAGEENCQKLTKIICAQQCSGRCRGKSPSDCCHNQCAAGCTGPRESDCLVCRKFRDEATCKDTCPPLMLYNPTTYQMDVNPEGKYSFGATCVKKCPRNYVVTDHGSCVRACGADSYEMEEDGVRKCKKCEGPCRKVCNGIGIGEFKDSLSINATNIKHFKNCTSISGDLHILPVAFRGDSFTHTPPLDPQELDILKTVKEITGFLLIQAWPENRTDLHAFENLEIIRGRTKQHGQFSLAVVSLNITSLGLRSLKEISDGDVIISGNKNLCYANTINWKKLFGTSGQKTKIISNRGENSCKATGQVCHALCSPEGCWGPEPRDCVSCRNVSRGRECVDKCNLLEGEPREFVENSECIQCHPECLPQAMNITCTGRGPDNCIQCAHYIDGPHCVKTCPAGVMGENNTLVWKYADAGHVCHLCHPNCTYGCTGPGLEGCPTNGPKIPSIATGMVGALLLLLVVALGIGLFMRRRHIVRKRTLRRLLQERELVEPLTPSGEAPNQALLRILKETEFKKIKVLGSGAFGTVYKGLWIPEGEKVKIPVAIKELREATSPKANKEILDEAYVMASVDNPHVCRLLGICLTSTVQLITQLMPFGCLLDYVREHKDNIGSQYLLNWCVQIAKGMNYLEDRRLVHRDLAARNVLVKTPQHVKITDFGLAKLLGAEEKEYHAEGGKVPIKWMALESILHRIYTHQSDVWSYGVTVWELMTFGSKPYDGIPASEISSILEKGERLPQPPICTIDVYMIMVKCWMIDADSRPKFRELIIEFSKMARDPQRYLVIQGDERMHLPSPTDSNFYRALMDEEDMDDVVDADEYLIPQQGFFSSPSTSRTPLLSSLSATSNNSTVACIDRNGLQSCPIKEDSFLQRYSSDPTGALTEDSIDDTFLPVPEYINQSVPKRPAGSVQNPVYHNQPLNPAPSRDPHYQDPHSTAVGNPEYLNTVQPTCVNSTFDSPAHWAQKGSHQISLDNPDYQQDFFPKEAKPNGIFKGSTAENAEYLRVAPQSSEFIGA
Chain of Proto-oncogene tyrosine-protein kinase receptor Ret (Homo sapiens, UniProt P07949, V804M) (P07949 29-1114 V804M limits assumed): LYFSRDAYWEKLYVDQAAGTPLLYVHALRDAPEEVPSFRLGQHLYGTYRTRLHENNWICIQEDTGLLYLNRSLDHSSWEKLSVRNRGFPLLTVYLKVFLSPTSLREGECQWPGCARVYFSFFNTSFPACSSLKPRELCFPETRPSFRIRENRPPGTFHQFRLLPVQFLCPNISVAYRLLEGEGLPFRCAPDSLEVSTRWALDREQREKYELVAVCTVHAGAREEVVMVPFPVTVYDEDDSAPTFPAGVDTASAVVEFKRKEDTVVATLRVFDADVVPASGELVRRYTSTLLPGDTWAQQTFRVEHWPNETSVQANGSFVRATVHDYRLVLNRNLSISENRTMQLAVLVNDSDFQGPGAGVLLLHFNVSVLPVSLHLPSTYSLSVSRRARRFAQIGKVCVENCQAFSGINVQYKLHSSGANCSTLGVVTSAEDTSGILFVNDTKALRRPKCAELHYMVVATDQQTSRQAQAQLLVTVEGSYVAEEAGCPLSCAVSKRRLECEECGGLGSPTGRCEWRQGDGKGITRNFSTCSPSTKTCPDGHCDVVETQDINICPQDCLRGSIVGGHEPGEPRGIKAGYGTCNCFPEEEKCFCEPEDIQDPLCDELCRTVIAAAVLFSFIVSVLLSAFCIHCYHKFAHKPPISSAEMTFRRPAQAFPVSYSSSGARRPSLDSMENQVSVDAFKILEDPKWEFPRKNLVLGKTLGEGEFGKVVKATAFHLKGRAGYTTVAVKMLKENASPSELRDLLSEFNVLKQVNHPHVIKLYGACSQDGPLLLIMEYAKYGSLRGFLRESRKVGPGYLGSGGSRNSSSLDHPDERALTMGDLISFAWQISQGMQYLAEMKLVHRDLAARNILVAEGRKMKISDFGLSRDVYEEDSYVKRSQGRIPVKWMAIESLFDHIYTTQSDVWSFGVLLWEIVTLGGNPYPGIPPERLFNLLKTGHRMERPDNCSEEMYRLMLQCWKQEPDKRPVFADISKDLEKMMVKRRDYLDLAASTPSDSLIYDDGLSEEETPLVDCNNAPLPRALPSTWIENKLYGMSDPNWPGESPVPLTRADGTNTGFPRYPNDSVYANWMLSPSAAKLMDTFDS
Chain of Serine/threonine-protein kinase B-raf (P15056 2-766 V600E limits assumed): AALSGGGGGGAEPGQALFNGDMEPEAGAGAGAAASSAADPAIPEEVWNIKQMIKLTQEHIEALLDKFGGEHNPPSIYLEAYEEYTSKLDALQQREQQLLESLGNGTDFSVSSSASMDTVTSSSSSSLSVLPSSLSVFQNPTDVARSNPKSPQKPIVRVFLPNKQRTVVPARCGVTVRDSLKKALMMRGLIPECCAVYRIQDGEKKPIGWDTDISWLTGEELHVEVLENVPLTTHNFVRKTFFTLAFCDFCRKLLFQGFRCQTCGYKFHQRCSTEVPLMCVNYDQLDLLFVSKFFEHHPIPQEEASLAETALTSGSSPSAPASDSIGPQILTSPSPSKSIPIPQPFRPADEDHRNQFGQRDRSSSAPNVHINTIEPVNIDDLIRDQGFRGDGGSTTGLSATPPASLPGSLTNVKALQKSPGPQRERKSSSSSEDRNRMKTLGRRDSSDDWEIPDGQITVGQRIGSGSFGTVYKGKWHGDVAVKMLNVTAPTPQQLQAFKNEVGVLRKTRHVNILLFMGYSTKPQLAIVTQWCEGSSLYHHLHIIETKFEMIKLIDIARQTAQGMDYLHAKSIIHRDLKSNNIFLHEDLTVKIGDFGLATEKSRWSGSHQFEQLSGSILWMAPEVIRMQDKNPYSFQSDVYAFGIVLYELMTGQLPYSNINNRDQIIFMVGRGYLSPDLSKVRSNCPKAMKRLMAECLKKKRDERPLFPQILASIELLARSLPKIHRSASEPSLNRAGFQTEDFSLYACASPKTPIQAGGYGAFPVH
Chain of Aurora kinase A (O14965 whole entry): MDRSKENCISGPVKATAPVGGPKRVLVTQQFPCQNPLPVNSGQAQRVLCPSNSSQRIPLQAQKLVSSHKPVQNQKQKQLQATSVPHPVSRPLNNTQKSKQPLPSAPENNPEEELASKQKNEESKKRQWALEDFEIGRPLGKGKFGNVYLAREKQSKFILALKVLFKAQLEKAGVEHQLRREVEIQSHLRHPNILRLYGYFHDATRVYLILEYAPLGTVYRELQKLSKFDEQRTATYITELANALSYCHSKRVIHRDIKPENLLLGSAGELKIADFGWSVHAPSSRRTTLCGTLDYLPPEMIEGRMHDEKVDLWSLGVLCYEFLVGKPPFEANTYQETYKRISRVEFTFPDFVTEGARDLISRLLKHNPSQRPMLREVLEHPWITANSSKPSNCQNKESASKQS
Chain of Vascular endothelial growth factor receptor 2 (P35968 whole entry): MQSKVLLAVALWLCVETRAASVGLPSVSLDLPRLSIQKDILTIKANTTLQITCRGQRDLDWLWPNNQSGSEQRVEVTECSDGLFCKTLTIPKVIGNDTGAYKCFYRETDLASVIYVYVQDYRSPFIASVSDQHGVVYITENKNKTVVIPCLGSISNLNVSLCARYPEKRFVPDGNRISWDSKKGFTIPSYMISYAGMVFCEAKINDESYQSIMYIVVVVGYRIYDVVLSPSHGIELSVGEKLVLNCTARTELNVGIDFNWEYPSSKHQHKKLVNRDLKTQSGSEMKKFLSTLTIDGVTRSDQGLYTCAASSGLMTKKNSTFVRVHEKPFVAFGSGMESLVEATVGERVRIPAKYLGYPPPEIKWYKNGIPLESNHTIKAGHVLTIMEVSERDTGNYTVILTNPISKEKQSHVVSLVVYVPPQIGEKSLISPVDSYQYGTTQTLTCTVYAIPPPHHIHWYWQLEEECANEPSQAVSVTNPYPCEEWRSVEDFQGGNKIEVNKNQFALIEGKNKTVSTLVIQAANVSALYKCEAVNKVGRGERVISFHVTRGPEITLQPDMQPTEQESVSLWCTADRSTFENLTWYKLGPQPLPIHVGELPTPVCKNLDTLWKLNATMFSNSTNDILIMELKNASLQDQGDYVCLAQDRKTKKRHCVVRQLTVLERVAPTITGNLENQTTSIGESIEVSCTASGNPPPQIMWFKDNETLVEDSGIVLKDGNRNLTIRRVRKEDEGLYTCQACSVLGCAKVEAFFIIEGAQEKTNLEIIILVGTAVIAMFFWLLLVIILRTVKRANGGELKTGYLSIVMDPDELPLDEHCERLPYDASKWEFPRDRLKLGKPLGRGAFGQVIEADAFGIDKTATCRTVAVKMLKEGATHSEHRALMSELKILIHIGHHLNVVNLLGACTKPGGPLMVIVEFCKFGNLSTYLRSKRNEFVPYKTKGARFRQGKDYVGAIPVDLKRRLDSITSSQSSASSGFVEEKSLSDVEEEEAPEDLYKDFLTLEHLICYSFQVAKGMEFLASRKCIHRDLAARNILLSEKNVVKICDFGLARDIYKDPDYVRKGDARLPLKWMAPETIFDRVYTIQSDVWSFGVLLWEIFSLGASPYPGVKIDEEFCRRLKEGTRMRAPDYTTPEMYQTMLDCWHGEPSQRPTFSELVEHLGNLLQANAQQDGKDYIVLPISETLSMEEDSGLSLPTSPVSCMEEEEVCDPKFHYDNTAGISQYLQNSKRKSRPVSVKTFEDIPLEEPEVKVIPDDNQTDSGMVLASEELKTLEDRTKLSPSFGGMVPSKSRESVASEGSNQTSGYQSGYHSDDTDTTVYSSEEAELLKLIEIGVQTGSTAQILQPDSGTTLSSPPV

SMILES: CN(CCOC(=O)c1ccc(C(=O)Nc2ncnc3c2c(-c2ccc(Cl)cc2)nn3C(C)(C)C)nc1)Cc1ccc(C(=O)Nc2ccc3ncnc(Nc4cccc(Cl)c4)c3c2)cc1
pIC50 [1]: 5.96 | pIC50 (MDA-MB-231): 5.13 | pIC50 (4T1): 5.25 | pIC50 [2]: 6.21

SMILES: O=C(Cc1ccc(-n2cnc3cc(-c4ccsc4)ccc32)cc1)Nc1cccc(C(F)(F)F)c1
pIC50 [8]: > 9.00 | pIC50 [9]: > 9.00 | pIC50 [10]: > 9.00

SMILES: COc1cccc(-c2cc(=O)c3ccccc3o2)c1NC(=O)OCCOC(=O)NCCN(C)CCN/N=N/c1ccc2c(Nc3cccc(Cl)c3)ncnc2c1
pIC50 (DU-145): 4.95 | pIC50 (MES-SA): 4.61 | pIC50 [11]: 6.99

The next lines start with results.

pIC50 [3]: 5.08 | GI50 (SW-1736): 4.21 µM | pIC50 (Aurora kinase A): 7.46
SMILES: Cc1cc(S(=O)(=O)Nc2ccc(/C=C3\SC(=O)N(CC4(C)CCCCC4)C3=O)cc2)ccc1[N+](=O)[O-]
GI50 (BCPAP): 3.79 µM | GI50 [4]: 3.37 µM | GI50 [5]: 4.51 µM | GI50 (FTC-133): 5.9 µM | GI50 [6]: 1.36 µM | GI50 (TPC1): 7.26 µM

pIC50 [7]: 6.93 | pIC50 (MCF7): 6.30 | pIC50 (A549): 7.05 | pIC50 (A-375): 7.00 | pIC50 (LoVo): 7.10 | pIC50 (HCT-116): 6.96 | pIC50 (COLO 205): 7.05
SMILES: CN(c1nc(-c2cnc(N)nc2)nc(N2CCOCC2)n1)C1CCN(C(=O)c2ccccc2)CC1
